For 21 molecules, IC50 results are on record in US8569295B2, “Bicyclic urea compounds” (Merck Patent GmbH, priority 2009, dated 2013).

One assay concerns the target T1, GST-Aurora A (Homo sapiens, UniProt O14965).
T1 construct: N-terminal GST fusion with full length Aurora A (1-403 amino acids); purchased Carna Biosciences 05-101
T1 sequence (O14965 1-403): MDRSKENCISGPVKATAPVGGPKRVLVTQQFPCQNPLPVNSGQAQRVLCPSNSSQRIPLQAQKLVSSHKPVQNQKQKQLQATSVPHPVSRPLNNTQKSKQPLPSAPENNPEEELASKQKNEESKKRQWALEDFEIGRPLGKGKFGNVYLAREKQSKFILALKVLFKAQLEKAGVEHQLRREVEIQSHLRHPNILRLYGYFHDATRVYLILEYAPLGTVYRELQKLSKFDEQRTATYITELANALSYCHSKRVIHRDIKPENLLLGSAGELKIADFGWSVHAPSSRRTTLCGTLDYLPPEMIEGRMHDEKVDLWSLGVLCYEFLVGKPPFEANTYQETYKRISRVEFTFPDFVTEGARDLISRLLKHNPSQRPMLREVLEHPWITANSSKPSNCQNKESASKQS
Nature of the assay: Aurora A kinase biochemical mobility shift assay (Caliper LC3000 / Desktop Profiler). Particulars: AK A (Aurora kinase A) inhibition. Here is the method:
(§1) The Aurora assays described here are performed on two Caliper Life Sciences systems: the LC3000 and the Desktop Profiler. The RON kinase assays are performed on the Desktop Profiler only. These provide data on enzyme activity via measurement of the relative amounts of phosphorylated or unphosphorylated fluorescently labelled substrate peptide at the end of an enzymatic reaction. These different states of peptide are resolved by applying a potential difference across the sample. The presence of the charged phosphate group on the product (as opposed to the substrate) causes a different peptide mobility between the two peptides. This is visualized by excitation of the fluorescent label on the substrate and product peptides and represented as peaks within the analysis software.
In order to measure inhibitor activity of Aurora A inhibitors in the Caliper Life Sciences LC3000, a TTP Mosquito liquid handling instrument is used to place 0.25 ul of the appropriate concentration of inhibitor in 100% DMSO (for a dose response curve calculation) into each well of a 384-well plate. To this reaction components are added to a final volume of 25 ul: • 0.067 ng/ul GST-Aurora A (Carna Biosciences 05-101. N-terminal GST fusion with full length Aurora A (1-403 amino acids), accession number NP_940835.1). • 15 uM ATP (Fluka, 02055) • 1 mM DTT (Sigma, D0632) • 1 mM MgCl2 (Sigma, M1028) • 1 uM substrate peptide (sequence FITC-LRRASLG-(CONH2), synthesized by Tufts Peptide Synthesis service. • 100 mM HEPES pH 7.5 (Calbiochem, 391338) • 0.015% Brij-35 (Sigma, B4184)
The reaction is incubated for 90 min at 25 C, and then stopped by the addition of 70 ul of Stop buffer (100 mM HEPES pH 7.5, 0.015% Brij-35, 10 mM EDTA (Sigma, E7889)).
The plate is read on a Caliper LC3000 in an Off-Chip mobility shift assay format, using the following parameters for a 12-sipper chip: screening pressure −1.8 psi, upstream voltage −2700, downstream voltage −1000. These conditions cause unphosphorylated substrate and phosphorylated product peptide to resolve as separate peaks allowing direct measurement of percentage of conversion of substrate to product. The percent conversion can be plotted against concentration of inhibitor to produce a sigmoidal dose response curve, from which an IC50 can be calculated using XLFit for Microsoft Excel.
(§2) The Desktop Profiler utilizes the same priniciple as the LC3000 for calculating percentage conversion of a substrate to product. Caliper Life Sciences provides proprietary flash frozen pre-made 384 well plates containing selected kinases. Each column in the 384 well plate contains a particular selected kinase. A second plate, the ‘substrate plate’ contains a mix of fluorescently labeled peptide substrate and ATP. These are arranged in columns so that transfer for substrate plate to enzyme plate provides the correct enzyme with the correct substrate/ATP concentration. Compounds are added to a thawed enzyme plate in the desired format, in single concentrations. Reactions are initiated by transfer of the substrate/ATP mix from the substrate plate. The enzyme plate is incubated for 90 minutes at 25 C. The reaction is stopped by addition of 70 ul of Stop Buffer (100 mM HEPES pH 7.5, 0.015% Brij-35, 10 mM EDTA (Sigma, E7889)).
(§3) Reading of the plate in the Profiler is identical to the LC3000, and the ratio between substrate and product peaks provides the activity of the enzyme in that well. This is best represented by a plate heat map which colors each well by percent inhibition as compared to positive and negative controls (no inhibitors and no ATP respectively).

The next assay addresses T2, RON kinase (Homo sapiens, UniProt Q04912).
T2 construct: purchased Caliper Life Sciences
Nature of the assay: RON kinase biochemical mobility shift assay (Caliper Desktop Profiler). Particulars: RON kinase inhibition. The protocol:
as §1, §2, §3

pIC50: −log10 of the molar value.

T2 sequence (Q04912 25-1400): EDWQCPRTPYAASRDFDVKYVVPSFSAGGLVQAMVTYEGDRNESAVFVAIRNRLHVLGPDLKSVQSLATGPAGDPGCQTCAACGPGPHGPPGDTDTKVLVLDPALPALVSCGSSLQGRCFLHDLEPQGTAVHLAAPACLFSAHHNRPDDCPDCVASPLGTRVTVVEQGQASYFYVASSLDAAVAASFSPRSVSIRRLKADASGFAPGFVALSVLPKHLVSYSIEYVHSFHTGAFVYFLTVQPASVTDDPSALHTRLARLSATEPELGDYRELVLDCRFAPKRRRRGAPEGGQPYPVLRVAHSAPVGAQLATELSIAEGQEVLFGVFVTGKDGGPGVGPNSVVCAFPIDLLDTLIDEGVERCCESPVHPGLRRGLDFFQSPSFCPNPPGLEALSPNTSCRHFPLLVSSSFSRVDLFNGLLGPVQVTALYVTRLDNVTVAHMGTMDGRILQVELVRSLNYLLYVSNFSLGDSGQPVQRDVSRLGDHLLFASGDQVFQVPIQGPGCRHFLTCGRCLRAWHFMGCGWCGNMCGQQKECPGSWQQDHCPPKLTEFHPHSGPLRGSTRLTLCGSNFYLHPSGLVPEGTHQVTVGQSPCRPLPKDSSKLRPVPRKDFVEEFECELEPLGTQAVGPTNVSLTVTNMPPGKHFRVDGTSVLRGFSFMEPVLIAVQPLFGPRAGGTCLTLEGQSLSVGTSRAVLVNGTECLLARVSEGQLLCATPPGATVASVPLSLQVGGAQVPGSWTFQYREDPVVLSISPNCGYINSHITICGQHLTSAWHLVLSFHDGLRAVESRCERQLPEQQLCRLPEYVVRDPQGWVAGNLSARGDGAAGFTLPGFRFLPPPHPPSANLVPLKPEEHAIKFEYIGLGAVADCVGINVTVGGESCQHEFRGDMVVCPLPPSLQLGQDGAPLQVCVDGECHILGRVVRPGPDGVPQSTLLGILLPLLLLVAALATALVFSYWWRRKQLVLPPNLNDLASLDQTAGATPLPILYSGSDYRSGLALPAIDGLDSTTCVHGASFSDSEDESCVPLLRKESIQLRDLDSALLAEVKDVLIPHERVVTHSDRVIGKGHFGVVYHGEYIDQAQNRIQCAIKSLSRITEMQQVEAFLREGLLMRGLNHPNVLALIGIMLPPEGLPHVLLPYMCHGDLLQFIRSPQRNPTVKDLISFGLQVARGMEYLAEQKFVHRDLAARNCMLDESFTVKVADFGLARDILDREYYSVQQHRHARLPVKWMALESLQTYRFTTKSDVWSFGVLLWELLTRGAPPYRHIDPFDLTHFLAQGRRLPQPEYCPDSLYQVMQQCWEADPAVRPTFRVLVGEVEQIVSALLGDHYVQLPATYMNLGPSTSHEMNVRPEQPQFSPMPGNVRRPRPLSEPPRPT

For `O=C(Nc1ccc(Nc2ccnc3c2CN(CC(F)(F)F)C(=O)N3)cc1)c1ccccc1` [Example 37, N-(4-(2-oxo-3-(2,2,2-trifluoroethyl)-1,2,3,4-tetrahydropyrido[2,3-d]pyrimidin-5-ylmino)phenyl)benzamide], the negative-log IC50 (pIC50) on GST-Aurora A was 7.00 to 8.00.

With `O=C(Nc1ccc(Nc2ccnc3c2CN(CC(F)(F)F)C(=O)N3)cc1)c1ccc(F)cc1C(F)(F)F` [Example 38, 4-fluoro-N-(4-(2-oxo-3-(2,2,2-trifluoroethyl)-1,2,3,4-tetrahydropyrido [2,3-d]pyrimidin-5-ylamino)phenyl)-2-(trifluoromethyl) benzamide], the pIC50 on GST-Aurora A is 7.00 to 8.00.

On to `CN1Cc2c(Nc3ccc(NC(=O)c4cccc(F)c4F)c(F)c3)ccnc2NC1=O` [Example 39, 2,3-difluoro-N-(2-fluoro-4-(3-methyl-2-oxo-1,2,3,4-tetrahydropyrido [2,3-d]pyrimidin-5-ylamino)phenyl) benzamide], for which the pIC50 at GST-Aurora A is 7.00 to 8.00. Still for that read-out and setting: under `O=C(Nc1ccc(Nc2ccnc3c2CN(CC(F)(F)F)C(=O)N3)c(F)c1)c1ccc(F)cc1C(F)(F)F` [Example 40, 4-fluoro-N-(3-fluoro-4-(2-oxo-3-(2,2,2-trifluoroethyl)-1,2,3,4-tetrahydropyrido[2,3-d]pyrimidin-5-ylamino)phenyl)-2-(trifluoromethyl) benzamide] stands greater than 8.00; under `CN1Cc2c(Nc3ccc(NC(=O)c4ccccc4F)cc3F)ccnc2NC1=O` [Example 41, 2-fluoro-N-(3-fluoro-4-(3-methyl-2-oxo-1,2,3,4-tetrahydropyrido [2,3-d]pyrimidin-5-ylamino)phenyl) benzamide], 7.00 to 8.00. Same read-out and setting: under `O=C(Nc1ccc(Nc2ccnc3c2C2OCCN2C(=O)N3)cc1)c1ccc(F)cc1C(F)(F)F` (stereo not drawn) [Example 43, 4-fluoro-N-(4-(5-oxo-3,5,6,10b-tetrahydro-2H-oxazolo[3,2-c]pyrido [3,2-e]pyrimidin-10-ylamino)phenyl)-2-(trifluoromethyl) benzamide] stands 6.00 to 7.00. `O=C1NCc2c(Oc3ccc(NC(=O)c4cccn(-c5ccc(F)cc5)c4=O)cc3F)ccnc2N1` [Example 59, N-{3-fluoro-4-[(2-oxo-1,2,3,4-tetrahydropyrido[2,3-d]pyrimidin-5-yl)oxy]phenyl}-1-(4-fluorophenyl)-2-oxo-1,2-dihydropyridine-3-carboxamide]: at RON kinase, the pIC50 was greater than 8.00. As for `COc1ccc(CN2Cc3c(Nc4ccc(NC(=O)CC(F)(F)F)cc4)ccnc3NC2=O)cc1` [Example 100, 3,3,3-trifluoro-N-(4-{[3-(4-methoxybenzyl)-2-oxo-1,2,3,4-tetrahydropyrido[2,3-d]pyrimidin-5-yl]amino}phenyl)propanamide], the pIC50 at GST-Aurora A is 6.00 to 7.00. The same measure, in the same setting: the result for `O=C(CC(F)(F)F)Nc1ccc(Nc2ccnc3c2CNC(=O)N3)cc1` [Example 107, 3,3,3-trifluoro-N-{4-[(2-oxo-1,2,3,4-tetrahydropyrido[2,3-d]pyrimidin-5-yl)amino]phenyl}propanamide] reads 6.00 to 7.00. Still for that read-out and setting: under `O=C(CC1CC1)Nc1ccc(Nc2ccnc3c2CNC(=O)N3)cc1` [Example 108, 2-cyclopropyl-N-{4-[(2-oxo-1,2,3,4-tetrahydropyrido[2,3-d]pyrimidin-5-yl)amino]phenyl}acetamide] stands 7.00 to 8.00; under `COc1ccc(CN2Cc3c(Nc4ccc(NC(=O)c5ccc(F)cc5C(F)(F)F)cc4F)ccnc3NC2=O)cc1` [Example 112, 4-fluoro-N-(3-fluoro-4-{[3-(4-methoxybenzyl)-2-oxo-1,2,3,4-tetrahydropyrido[2,3-d]pyrimidin-5-yl]amino}phenyl)-2-(trifluoromethyl)benzamide], 7.00 to 8.00; under `COc1ccc(CN2Cc3c(Nc4ccc(NC(=O)c5cccc(F)c5)cc4F)ccnc3NC2=O)cc1` [Example 113, 3-fluoro-N-(3-fluoro-4-{[3-(4-methoxybenzyl)-2-oxo-1,2,3,4-tetrahydropyrido[2,3-d]pyrimidin-5-yl]amino}phenyl)benzamide], 6.00 to 7.00. Regarding `COc1ccc(CN2Cc3c(Nc4ccc(NC(=O)c5ccccc5F)cc4F)ccnc3NC2=O)cc1` [Example 114, 2-fluoro-N-(3-fluoro-4-{[3-(4-methoxybenzyl)-2-oxo-1,2,3,4-tetrahydropyrido[2,3-d]pyrimidin-5-yl]amino}phenyl)benzamide], the pIC50 at GST-Aurora A is 6.00 to 7.00.

For the molecule `O=C1NCc2c(Nc3ccc(NC(=O)c4ccc(F)cc4C(F)(F)F)cc3F)ccnc2N1` [Example 116, 4-fluoro-N-{3-fluoro-4-[(2-oxo-1,2,3,4-tetrahydropyrido[2,3-d]pyrimidin-5-yl)amino]phenyl}-2-(trifluoromethyl)benzamide], the pIC50 at GST-Aurora A is greater than 8.00. Turning to `O=C1NCc2c(Nc3ccc(NC(=O)c4cccc(F)c4)cc3F)ccnc2N1` [Example 117, 3-fluoro-N-{3-fluoro-4-[(2-oxo-1,2,3,4-tetrahydropyrido[2,3-d]pyrimidin-5-yl)amino]phenyl}benzamide], the pIC50 on GST-Aurora A was 7.00 to 8.00. Still for that read-out and setting: the result for `O=C1NCc2c(Nc3ccc(NC(=O)c4ccccc4F)cc3F)ccnc2N1` [Example 118, 2-fluoro-N-{3-fluoro-4-[(2-oxo-1,2,3,4-tetrahydropyrido[2,3-d]pyrimidin-5-yl)amino]phenyl}benzamide] reads 7.00 to 8.00; that for `COc1ccc(CN2Cc3c(Nc4ccc(NC(=O)Nc5ccc(F)cc5C(F)(F)F)cc4)ccnc3NC2=O)cc1` [Example 119, N-[4-fluoro-2-(trifluoromethyl)phenyl]-N′-(4-{[3-(4-methoxybenzyl)-2-oxo-1,2,3,4-tetrahydropyrido[2,3-d]pyrimidin-5-yl]amino}phenyl)urea], 6.00 to 7.00; that for `COc1ccc(CN2Cc3c(Nc4ccc(NC(=O)Nc5ccc(F)c(F)c5)cc4)ccnc3NC2=O)cc1` [Example 120, N-(3,4-difluorophenyl)-N′-(4-{[3-(4-methoxybenzyl)-2-oxo-1,2,3,4-tetrahydropyrido[2,3-d]pyrimidin-5-yl]amino}phenyl)urea], 6.00 to 7.00. Still for that read-out and setting: the result for `O=C(Nc1ccc(Nc2ccnc3c2CNC(=O)N3)cc1)Nc1ccc(F)cc1C(F)(F)F` [Example 121, N-[4-fluoro-2-(trifluoromethyl)phenyl]-N′-{4-[(2-oxo-1,2,3,4-tetrahydropyrido[2,3-d]pyrimidin-5-yl)amino]phenyl}urea] reads 7.00 to 8.00. For `COc1ccc(CN2Cc3c(-c4ccc(C(=O)NCc5ccc(F)c(OC)c5)s4)ccnc3NC2=O)cc1` [Example 129, N-(4-fluoro-3-methoxybenzyl)-5-[3-(4-methoxybenzyl)-2-oxo-1,2,3,4-tetrahydropyrido[2,3-d]pyrimidin-5-yl]thiophene-2-carboxamide], at GST-Aurora A, the pIC50 was 7.00 to 8.00. Still for that read-out and setting: under `COc1cc(CNC(=O)c2ccc(-c3ccnc4c3CNC(=O)N4)s2)ccc1F` [Example 130, N-(4-fluoro-3-methoxybenzyl)-5-(2-oxo-1,2,3,4-tetrahydropyrido[2,3-d]pyrimidin-5-yl)thiophene-2-carboxamide] stands 7.00 to 8.00.
